From patent publication US20190280220A1, “METAL COMPLEXES” (Merck Patent GmbH, priority 2016, published 2019) come the findings set out here.

SMILES strings stand for the structures.

The data set is described as follows: Comparison of solubility in organic solvents at room temperature. Format: physicochemical. An excerpt: The compounds of the invention have very good solubility in nonpolar solvents (aromatics, alkylaromatics, cyclohexane) and dipolar aprotic solvents (ketones, ethers, esters, amides, sulfones, sulfoxides etc., such as acetone, butanone, cyclohexanone, di-n-butyl ether, THF, dioxane, 3-phenoxytoluene, anisole, ethyl acetate, butyl acetate, hexyl acetate, methyl benzoate, DMF, DMAC, NMP, DMSO, dimethyl sulfone, sulfolane, etc.) and mixtures thereof, and form solutions that are stable for a long period of time. Preferred concentrations are 5-500 mg/ml, more preferably 20-200 mg/ml.

Turning to `c1ccc(-c2c(-c3ccccc3)c(-c3ccccc3)c(-c3cc[c]([Ir]([c]4ccc(-c5c(-c6ccccc6)c(-c6ccccc6)c(-c6ccccc6)c(-c6ccccc6)c5-c5ccccc5)cc4-c4ccccn4)[c]4ccc(-c5c(-c6ccccc6)c(-c6ccccc6)c(-c6ccccc6)c(-c6ccccc6)c5-c5ccccc5)cc4-c4ccccn4)c(-c4ccccn4)c3)c(-c3ccccc3)c2-c2ccccc2)cc1` [Ir(500)], the “Solubility, 3-Phenoxytoluene” value was >150 mg/mL; the “Solubility, DMF” value is >70 mg/mL; the “Solubility, Cyclohexane” value was >5 mg/mL; the “Solubility, n-Butyl benzoate” value was >80 mg/mL. Further, the “Solubility, Toluene” value is >100 mg/mL.

In the case of `c1ccc(-c2c(-c3ccccc3)c(-c3ccccc3)c(-c3ccc(-c4cc(-c5ccccn5)[c]5cc4-c4ccccc4-c4cc6cc(c4)-c4ccccc4-c4c[c](c(-c7ccccn7)cc4-c4ccc(-c7c(-c8ccccc8)c(-c8ccccc8)c(-c8ccccc8)c(-c8ccccc8)c7-c7ccccc7)cc4)[Ir]5[c]4cc(c(-c5ccc(-c7c(-c8ccccc8)c(-c8ccccc8)c(-c8ccccc8)c(-c8ccccc8)c7-c7ccccc7)cc5)cc4-c4ccccn4)-c4ccccc4-6)cc3)c(-c3ccccc3)c2-c2ccccc2)cc1` [Ir(530)], the “Solubility, 3-Phenoxytoluene” value is >150 mg/mL; the “Solubility, DMF” value is >70 mg/mL; the “Solubility, Cyclohexane” value is >5 mg/mL; the “Solubility, n-Butyl benzoate” value is >80 mg/mL. Also, the “Solubility, Toluene” value was >100 mg/mL.
